From patent publication US20130108688A1, “Delivery of H2 Antagonists” (Trustees of Boston University, priority 2004, published 2013)
Like-named read-outs stand apart in the source and are kept apart here.

Legend:
[1] = system: P. gingivalis-induced periodontitis; settings: for overall effect on tissue destruction and inflammatory cell infiltrate: local administration, three dosages; for linear distance from the epithelium to the alveolar crest border, ratio ligated/non-ligated sites (FIG. 6A): tip, middle and base of the crest
Method: In total, 21 New Zealand White rabbits (male, 3.5-4.0 kg each) were used in the experiments presented herein. Three different doses of Cimetidine (0.1, 1.0 and 10 μg/mL) have been prepared in paucilamellar liposomes (NOVASOME®). The animals were distributed as follows: Group A: Ligature alone (2 rabbits); Group B: Ligature+P. gingivalis (4 rabbits); Group C: Ligature+P. gingivalis+liposome (NOVASOME®) alone; Group D: Ligature+P. gingivalis+NOVASOME® preparation comprising 0.1 μg/mL of Cimetidine (4 rabbits); Group E: Ligature+P. gingivalis+NOVASOME® preparation comprising 1.0 μg/mL of Cimetidine (4 rabbits); and Group F: Ligature+P. gingivalis+NOVASOME® preparation comprising 10 μg/mL of Cimetidine (4 rabbits). All animals were purchased from Pine Acre Farms (Berthoud, Co.). The weight of the animals was strictly controlled and all animals weighed between 3.5-4.0 kg at the time of the initial experimentation. The animals were kept in individual cages, received water ad libitum, and were fed with specialized food (chow) for at least 5 days for acclimatization by experienced and licensed laboratory technicians at the Laboratory Animal Science Center at BUMC (BUMC LASC).
Ligature placement was performed under general anesthesia using ketamine (40 mg/kg) and xylazine (5 mg/kg) injections. […] Animals in group A received ligature only while animals in groups B, C, D, E, and F received P. gingivalis in addition to ligature placement.
P. gingivalis (strain A74376) was grown as previously described. Briefly, bacteria were cultured on agar plates containing trypticase soy agar supplemented with 0.5% (w/v) yeast extract, 5% defibrinated sheep red blood cells, […], and 1 μg/mL vitamin K. Plates were incubated for 3 days at 37° C. in jars anaerobically maintained through palladium catalyzed hydrogen/carbon dioxide envelopes (GasPak Plus, BD Microbiology Systems, Sparks, Md.). Colonies were randomly selected and anaerobically cultured overnight at 37° C. in Schaedler's broth supplemented with vitamin K and hemin. Bacteria numbers were spectrophotometrically determined at 600 nm and 10^9 CFU (0.8 OD) were mixed with carboxymethylcellulose to form a thick slurry, which was applied topically to the ligated teeth. The sutures were checked at every appointment, and lost or loose sutures were replaced.
Topical application was performed in animals of Groups D, E, and F every other day for 6 weeks under inhalation anesthesia using isoflurane (4.0 MAC/2.0 MAC). In these groups, Cimetidine was applied at three different doses. Cimetidine preparations were delivered in liposomes (NOVASOME®) that served as a vehicle for the H2 receptor antagonist. In order to see if liposome application alone would have any effect on the outcome, animals in Group C received liposomes without Cimetidine (i.e., NOVASOME® alone) in addition to ligature placement and P. gingivalis.
For histological analysis, the other half of the mandible was immersed in a volume of immunocal (Decal Corporation, Tallman, N.Y.) equal to at least 10 times the size of the section; the solution was replaced every 24 hours for 72 hours. Decalcification was assessed and confirmed by serial radiographs, which were taken every other day during two weeks.
The tissue was kept in this solution for 2-3 minutes, rinsed again in flowing deionized water for at least 3 minutes and kept in formalin for at least 24 hours before embedding in paraffin. Thin sections (5 μm) were cut and sections were conventionally stained with hematoxylin and eosin (H&E) to identify the cellular composition of the inflammatory infiltrates, and one hundred seventy (170) 5 μm-sections were stained with tartrate-resistant acid phosphatase (TRAP) to detect osteoclastic activity.
The data obtained by direct measurements during morphologic assessment and by histomorphometric measurements was used in multiple statistical analyses.

[2] = system: P. gingivalis and ligature-induced experimental periodontitis
[3] = system: P. gingivalis-induced periodontitis; settings: three doses; p<0.05
immunized normal cells = settings: in vitro; optimum enhancement at lower dosage (10 μg) on first day; cited from earlier work
[4] = system: CD8 (cytotoxic/suppressor) and CD4 (helper/inducer) lymphocytes; settings: 800 mg daily for 7 days; cited from earlier work
[5] = AIDS patients; cited from earlier work
H2 receptor = settings: via H2 receptor; cited from earlier work
[6] = topical application to the oral cavity; cited from earlier work
neutrophils = settings: cited from earlier work
lymphocyte = settings: cited from earlier work

| SMILES | overall effect on tissue destruction and inflammatory cell infiltrate [1] | overall effect on tissue destruction and inflammatory cell infiltrate ([1]; listed as cimetidine) | total, ligatured and ratio of ligatured/non-ligatured areas of the alveolar crest (FIG. 6B) ([1]; three doses) | linear distance from the epithelium to the alveolar crest border, ratio ligated/non-ligated sites (FIG. 6A) ([1]; three doses) | linear distance from the epithelium to the alveolar crest border, ratio ligated/non-ligated sites (FIG. 6A) ([1]; three doses, listed as cimetidine) | bone loss and inflammatory changes, H&E stained sections (FIG. 4) ([1]; topical 0.1, 1.0 and 10 μg/mL, Groups D, E, F) | preventive effect on bone loss, quantitative analysis of defleshed bone specimens (FIG. 2) ([2]; all three doses vs liposome (NOVASOME) placebo, p<0.05, ANOVA) | gingival inflammation and bone destruction (macroscopic, FIG. 1) ([2]; topical, in NOVASOME liposomes, 0.1, 1.0 and 10 μg/mL, every other day for 6 weeks, Groups D, E, F) | percentage of bone loss as calculated by Bjorn technique (FIG. 3 lower panel) [3] | primary humoral antibody response (immunized normal cells) | CD4 (helper/inducer) lymphocytes [4] | CD8 (cytotoxic/suppressor) lymphocytes [4] | clinical symptoms of disease [5] | histamine-mediated increase in IL-α induced IL-6 synthesis (H2 receptor) | resolution of intra- and peri-oral warts [6] | superoxide (O2·-) and hydrogen peroxide (H2O2) production of neutrophils (neutrophils) | immunomodulating effect among H2 receptor antagonists (cimetidine, ranitidine, famotidine) (lymphocyte) |
| --- | --- | --- | --- | --- | --- | --- | --- | --- | --- | --- | --- | --- | --- | --- | --- | --- | --- |
| CN/C(=N/CCSCc1nc[nH]c1C)NC#N [Cimetidine] | prevent bone loss, inflammatory cell infiltration, and connective tissue destruction | inhibits P. gingivalis-elicited leukocyte migration toward the site of infection | no significant differences between the cimetidine groups | significantly increased (p<0.05) distances compared to the Cimetidine-treated groups | almost similar, insignificant (p>0.05) mean ratio values | prevent both bone loss and inflammatory changes | statistically significant | prevented the gingival inflammation and bone destruction in a significant and comparable way with no apparent dose-dependent effect | prevents the destructive effects of P. gingivalis-induced periodontitis | markedly influence | corresponding increase | decrease | significant improvement effect | completely reverse | complete resolution | reduces | strongest immunomodulating effect |
| C/N=C(\S)NCCSCc1[nH]cnc1C [metiamide] |  |  |  |  |  |  |  |  |  | markedly influence |  |  |  |  |  |  |  |
